Measured values from ChEMBL document CHEMBL5726044, “Imidazopyridazines as Akt kinase inhibitors” (2017).

Assays:
[1] = biological target: RAC-beta serine/threonine-protein kinase (Homo sapiens, UniProt P31751); experiment: Kinase Assay: His-tagged human recombinant kinase full-length Akt2 expressed in insect cells and activated by PDK1 was purchased form Invitrogen (part number PV 3975). As substrate for the kinase reaction the biotinylated peptide biotin-Ahx-[…] (C-terminus in amide form) was used which can be purchased e.g. from the company Biosynthan GmbH (Berlin-Buch, Germany). For the assay 50 nl of a 100 fold concentrated solution of the test compound in DMSO was pipetted into a black low volume 384 well microtiter plate (Greiner Bio-One, Frickenhausen, Germany), 2 μl of a solution of Akt2 in assay buffer [50 mM TRIS/HCl pH 7.5, 5 mM MgCl2, 1 mM dithiothreitol, 0.02% (v/v) Triton X-100 (Sigma)] were added and the mixture was incubated for 15 min at 22° C. to allow pre-binding of the test compounds to the enzyme before the start of the kinase reaction. Then the kinase reaction was started by the addition of 3 μl of a solution of adenosine-tri-phosphate (ATP, 16.7 μM=>final conc. in the 5 μl assay volume is 10 μM) and substrate (1.67 μM=>final conc. in the 5 μl assay volume is 1 μM) in assay buffer and the resulting mixture was incubated for a reaction time of 60 min at 22° C. The concentration of Akt2 in the assay was adjusted depending of the activity of the enzyme lot and was chosen appropriate to have the assay in the linear range, typical enzyme concentrations were in the range of about 0.2 ng/μl (final conc. in the 5 μl assay volume). The reaction was stopped by the addition of 5 μl of a solution of HTRF detection reagents (200 nM streptavidine-XL665 [Cisbio] and 1.5 nM anti-phosho-Serine antibody [Millipore, cat. #35-001] and 0.75 nM LANCE Eu-W 1024 labeled anti-mouse IgG antibody [Perkin Elmer]) in an aqueous EDTA-solution (100 mM EDTA, 0.1% (w/v) bovine serum albumin in 50 mM HEPES/NaOH pH 7.5). The resulting mixture was incubated 1 h at 22° C. to allow the binding of the biotinylated phosphorylated peptide to the streptavidine-XL665 and the antibodies.
Chain of RAC-beta serine/threonine-protein kinase (P31751 whole entry): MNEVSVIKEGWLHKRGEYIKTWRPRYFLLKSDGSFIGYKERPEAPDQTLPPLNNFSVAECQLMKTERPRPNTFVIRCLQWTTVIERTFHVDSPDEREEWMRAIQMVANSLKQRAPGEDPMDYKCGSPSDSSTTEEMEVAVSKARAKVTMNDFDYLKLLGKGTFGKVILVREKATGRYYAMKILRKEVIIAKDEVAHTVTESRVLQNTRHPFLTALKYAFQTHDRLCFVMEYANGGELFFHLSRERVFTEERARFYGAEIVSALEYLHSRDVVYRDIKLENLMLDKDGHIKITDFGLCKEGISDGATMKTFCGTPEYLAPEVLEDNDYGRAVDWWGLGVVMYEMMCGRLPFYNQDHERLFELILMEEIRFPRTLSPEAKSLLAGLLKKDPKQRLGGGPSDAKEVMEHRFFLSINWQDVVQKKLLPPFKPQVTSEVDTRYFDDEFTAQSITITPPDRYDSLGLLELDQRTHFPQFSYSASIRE

[2] = biological target: RAC-alpha serine/threonine-protein kinase (Homo sapiens, UniProt P31749); experiment: Kinase Assay: For the assay 50 nl of a 100 fold concentrated solution of the test compound in DMSO was pipetted into a black low volume 384 well microtiter plate (Greiner Bio-One, Frickenhausen, Germany), 2 μl of a solution of Akt1 in assay buffer [50 mM TRIS/HCl pH 7.5, 5 mM MgCl2, 1 mM dithiothreitol, 0.02% (v/v) Triton X-100 (Sigma)] were added and the mixture was incubated for 15 min at 22° C. to allow pre-binding of the test compounds to the enzyme before the start of the kinase reaction. Then the kinase reaction was started by the addition of 3 μl of a solution of adenosine-tri-phosphate (ATP, 16.7 μM=>final conc. in the 5 μl assay volume is 10 μM) and substrate (1.67 μM=>final conc. in the 5 μl assay volume is 1 μM) in assay buffer and the resulting mixture was incubated for a reaction time of 60 min at 22° C. The concentration of Akt1 in the assay was adjusted depending of the activity of the enzyme lot and was chosen appropriate to have the assay in the linear range, typical enzyme concentrations were in the range of about 0.05 ng/μl (final conc. in the 5 μl assay volume). The reaction was stopped by the addition of 5 μl of a solution of HTRF detection reagents (200 nM streptavidine-XL665 [Cisbio] and 1.5 nM anti-phosho-Serine antibody [Millipore, cat. #35-001] and 0.75 nM LANCE Eu-W 1024 labeled anti-mouse IgG antibody [Perkin Elmer]) in an aqueous EDTA-solution (100 mM EDTA, 0.1% (w/v) bovine serum albumin in 50 mM HEPES/NaOH pH 7.5). The resulting mixture was incubated 1 h at 22° C. to allow the binding of the biotinylated phosphorylated peptide to the streptavidine-XL665 and the antibodies. Subsequently the amount of phosphorylated substrate was evaluated by measurement of the resonance energy transfer from the anti-mouse-IgG-Eu-Chelate to the streptavidine-XL665. Therefore, the fluorescence emissions at 620 nm and 665 nm after excitation at 350 nm was measured in a HTRF reader, e.g. a Rubystar (BMG Labtechnologies, Offenburg, Germany) or a Viewlux (Perkin-Elmer).
Chain of RAC-alpha serine/threonine-protein kinase (P31749 whole entry): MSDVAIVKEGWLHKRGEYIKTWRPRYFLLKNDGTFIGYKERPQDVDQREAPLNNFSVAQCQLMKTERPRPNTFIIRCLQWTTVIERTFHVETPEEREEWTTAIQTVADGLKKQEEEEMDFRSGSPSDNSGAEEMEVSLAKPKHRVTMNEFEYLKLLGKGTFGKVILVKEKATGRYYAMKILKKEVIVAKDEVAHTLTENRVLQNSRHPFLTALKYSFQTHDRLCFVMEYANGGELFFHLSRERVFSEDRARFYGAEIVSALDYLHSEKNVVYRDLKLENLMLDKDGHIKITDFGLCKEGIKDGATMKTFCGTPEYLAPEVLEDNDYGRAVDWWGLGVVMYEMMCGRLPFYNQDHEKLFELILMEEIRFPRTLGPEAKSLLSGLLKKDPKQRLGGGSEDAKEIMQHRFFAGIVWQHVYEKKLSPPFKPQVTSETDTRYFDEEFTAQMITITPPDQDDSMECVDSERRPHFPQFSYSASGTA

Row | IC50 [1] | IC50 [2] | Structure (SMILES)
1 | 70 nM | 120 nM | NC1(c2ccc(-c3nc4ccc(C(F)(F)F)nn4c3-c3ccccc3)cc2)CCC1
2 | 110 nM | 65 nM | NC(=O)c1ccnn2c(-c3ccccc3)c(-c3ccc(C4(N)CCC4)cc3)nc12
3 | 56 nM | 45 nM | CCOc1nn2c(-c3ccccc3)c(-c3ccc(C4(N)CCC4)cc3)nc2c(C)c1C
